Publication PMC7478165, “Derivatisation of parthenolide to address chemoresistant chronic lymphocytic leukaemia” (MedChemComm, 2019)
Read-outs that look alike come from different tables or passages of the source.

Legend:
[1] = Stability in aqueous solution, pH 7.4; format: physicochemical; conditions: for half-life: pH 7.4, read-out: Stability pH 7.4 T1/2; for stability in aqueous solution: result in words
Experimental: Compounds 2d, 2e, 2f, 2g, 2j, 2aa, 5a, 5d, 5e, 5f, 5ab and 6b were subjected to in vitro DMPK testing. […] The other three (2d, 2j and 2aa) were not retained for further investigation due to poor stability (T1/2 at pH 7.4: 13, 107 and 76 min, Table 1, entries 1, 3 and 4 respectively). One obvious aspect contributing to observed stability is the propensity for PTL derivatives of this type to undergo a retro-amination (reverse-Michael-type mechanism), indeed this reverse reaction is often claimed as a pro-drug mode of action.[29a],[33] […] It is a reasonable assertion that activity observed for these unstable compounds could well be ascribed to free PTL generated rapidly in the assay.

[2] = Caco-2 permeability assay; format: in vitro ADME; conditions: for efflux ratio / Papp A→B / Papp B→A: human; for efflux ratio: Caco-2, pH 7.4; for Papp A→B / Papp B→A: Caco-2; for Papp A→B: pH 7.4, A to B; for Papp B→A: pH 7.4, B to A
[3] = tested on: MEC1 CLL cell line; assay: alamarBlue assay, in vitro antileukaemic activity against MEC1 CLL cell line; format: cell-based; conditions: for LipE pEC50–clog P: MEC1 cell line pEC50 minus calculated log P
Description: Defective p53-signalling increases genomic instability and drives tumour progression. A high frequency of p53 inactivation is found in relapsed, treatment-resistant, high risk CLL.[30] […] Owing to resource availability a subset of up to ten of these compounds was prioritised for further investigation. Compounds 2d, 2e, 2j, 2aa, 5a, 5d, 5e, 5f, 5ab and 6b were selected on the basis of reasons including ease of synthetic access, diversity across the chemical space probed and novelty. Those prepared under conditions (i)Scheme 1 (2d, 5a and 6b) were available on a scale and in a purity to directly permit follow-up studies, whereas compounds prepared under conditions (ii)Scheme 1 were prepared on a small scale so were resynthesised. These seven compounds (2e, 2j, 2aa, 5d, 5e, 5f and 5ab) were isolated on >30 mg scale in high purity and progressed to more following studies.
Following the identification of 5f as the most promising drug-like derivative of PTL from the aforementioned parallel/high-throughput screening, the anti-leukaemic activity of 5f was tested once more and compared directly with that of PTL (1) and DMAPT (2a), which serve as comparators and positive controls.
Amine 7 was successfully prepared as follows: 4-Piperidinecarboxylic acid was N-Boc protected to deliver 8 in 92% yield.[43] In order to confidently assign the NMR spectra of compound 8 J-MOD, HSQC and ^1H–^1H COSY were helpful, particularly in establishing that a broad resonance in the proton-decoupled ^13C NMR spectrum, centred on 42.8 ppm, corresponds to the ring-carbons bonded to nitrogen. The carboxylic acid of 8 was converted to the corresponding ethyl-3-keto-propanoate 9 in 24% yield. Conversion of 9 to the N-Boc protected congener 10, was achieved by treatment with acetamidine hydrochloride and potassium carbonate, furnishing 10 in 77% yield. Treatment with trifluoroacetic acid delivered desired compound 7 in 99% yield for the Boc-deprotection step (scale 200 mg, 17% over four linear steps). Thus, evidencing accessibility of amine 7 and with it in hand, it was timely to probe any activity arising from the amine alone. MEC1 sensitivity to 1, 5f and 7 was compared in parallel using the alamarBlue® assay (Fig. 6). […] A pre-peer-reviewed preprint of this article was deposited and may be viewed elsewhere.[44]

[4] = Hepatocyte stability assay (mouse); format: in vitro ADME; conditions: mouse hepatocytes; for half-life: read-out: Hepatocyte stability (mouse) T1/2
[5] = Microsomal stability assay (mouse); conditions: for Mouse microsomal stability: mouse microsomes; for microsomal CLint: mouse, liver microsomes
[6] = Murine intravenous PK study; format: in vivo; conditions: IV 1 mg kg^–1; for clearance / half-life / Vd: blood, mouse; for clearance: read-out: Mouse PK (IV) Cl; for half-life: read-out: Mouse PK (IV) T1/2 (converted); for Vd: read-out: Mouse PK (IV) VSS
Experimental: In order to determine 5a and 5f are suitable for use as pharmaceutical agents their pharmacokinetic (PK) parameters were next probed. A murine intravenous PK study of compounds 5a and 5f at 1.0 mg kg^–1 was conducted and their concentrations in blood were measured with time (Fig. 4(a)i and (b)i and Table 2).

[7] = Murine oral (PO) PK study; format: in vivo; conditions: for Cmax / Tmax / bioavailability / half-life: in vivo, mouse; for bioavailability: read-out: Mouse PK (PO) F%; for half-life: PO 10 mg kg^–1, as worded in text
Experimental: The in vivo oral bioavailability of compounds 5a and 5f was compared in a murine PK study at 10 mg kg^–1 (Fig. 4(a)ii and (b)ii and Table 2). In keeping with the intravenous findings, the murine PO half-life of 5f was twice as long as 5a (1.0 versus 0.5 hours, Table 2) and the Cmax attained by 5f was approximately 40% higher than that achieved by 5a (404 versus 283 ng mL^–1). […] Compound 5f was therefore identified as a promising potential new agent with desirable pharmacological properties towards a therapy for drug-resistant CLL.

[8] = molecular target: hERG K+ channel (Homo sapiens, UniProt Q12809); assay: hERG liability assay, IonWorks patch clamp electrophysiology; format: cell-based; conditions: for IC50: eight-point curves, maximum test concentration 100 μM; for inhibition at 100 µM: read-out: hERG inhibition at top test concentration
Experimental: Early toxicological screening is an important step in derisking drug discovery programmes and is increasingly accessible.[39]
Three PTL derivatives (2a, 5a and 5f) were tested for inhibition of the hERG K^+ channel (against cisapride as a positive control) using IonWorks patch clamp electrophysiology. […] Eight-point concentration-response curves were generated using three-fold serial dilutions from a maximum final test concentration of 100 μM, results are summarised in Fig. S6. ^†

[9] = Homo sapiens, MEC1, MEC1 cell line, alamarBlue assay, library screen, read-out: EC50 ave.
[10] = first of two columns headed A to B
[11] = second of two columns headed A to B
[12] = MEC1 cell line, alamarBlue assay, library screen, read-out: EC50 ave.
[13] = Homo sapiens, MEC1, MEC1 cell line, read-out: pEC50 (converted)
[14] = Homo sapiens, MEC1, MEC1 cells, alamarBlue, direct comparison of 5f with PTL and DMAPT, n = 5, read-out: EC50

hERG K+ channel, sequence (Q12809 whole entry): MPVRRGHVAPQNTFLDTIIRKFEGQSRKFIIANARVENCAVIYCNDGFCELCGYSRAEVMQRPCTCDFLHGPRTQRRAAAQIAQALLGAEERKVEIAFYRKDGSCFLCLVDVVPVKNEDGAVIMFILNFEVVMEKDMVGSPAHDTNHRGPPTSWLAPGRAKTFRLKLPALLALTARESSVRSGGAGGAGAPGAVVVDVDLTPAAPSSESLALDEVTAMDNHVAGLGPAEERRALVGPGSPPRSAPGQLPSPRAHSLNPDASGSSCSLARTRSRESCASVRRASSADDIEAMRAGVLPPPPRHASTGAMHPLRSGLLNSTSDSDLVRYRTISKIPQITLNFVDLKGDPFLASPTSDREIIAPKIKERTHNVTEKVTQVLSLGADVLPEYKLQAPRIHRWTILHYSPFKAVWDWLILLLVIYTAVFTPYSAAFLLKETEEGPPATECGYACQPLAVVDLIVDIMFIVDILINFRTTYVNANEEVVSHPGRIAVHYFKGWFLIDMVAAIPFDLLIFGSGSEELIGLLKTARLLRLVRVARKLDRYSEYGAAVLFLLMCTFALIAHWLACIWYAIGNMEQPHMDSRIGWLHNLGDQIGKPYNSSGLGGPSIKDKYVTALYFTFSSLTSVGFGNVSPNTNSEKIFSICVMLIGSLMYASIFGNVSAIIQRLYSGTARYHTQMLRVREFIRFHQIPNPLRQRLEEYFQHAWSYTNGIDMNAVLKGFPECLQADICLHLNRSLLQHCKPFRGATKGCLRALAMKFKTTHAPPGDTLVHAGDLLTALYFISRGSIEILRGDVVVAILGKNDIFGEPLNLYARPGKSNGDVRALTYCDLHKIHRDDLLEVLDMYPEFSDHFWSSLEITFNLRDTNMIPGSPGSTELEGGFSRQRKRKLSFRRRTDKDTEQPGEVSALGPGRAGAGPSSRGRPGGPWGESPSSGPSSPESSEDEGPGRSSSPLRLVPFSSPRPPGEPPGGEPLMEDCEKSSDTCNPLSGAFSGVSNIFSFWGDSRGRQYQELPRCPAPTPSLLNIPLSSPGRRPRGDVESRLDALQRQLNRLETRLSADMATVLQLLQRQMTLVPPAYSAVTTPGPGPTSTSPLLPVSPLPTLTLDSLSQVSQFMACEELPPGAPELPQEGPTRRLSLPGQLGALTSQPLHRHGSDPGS

| SMILES | half-life [1] | efflux ratio [2] | Papp A→B [2] | Papp B→A [2] | EC50 [3, 9] | LipE pEC50–clog P [3] | Hepatocyte stability (mouse) CLint [4] | half-life [4] | Mouse microsomal stability [5, 10] | Mouse microsomal stability [5, 11] | EC50 [3, 12] | Mouse PK (IV) UC (0-inf) [6] | clearance [6] | half-life [6] | Mouse PK (PO) UC (0-inf) ([7]; PO 10 mg kg^–1) | Cmax ([7]; PO 10 mg kg^–1) | inhibition at 100 µM ([8]; human) | further results |
| --- | --- | --- | --- | --- | --- | --- | --- | --- | --- | --- | --- | --- | --- | --- | --- | --- | --- | --- |
| C/C1=C\CC[C@@]2(C)O[C@@H]2[C@H]2OC(=O)[C@@H](CN3CCCC3)[C@@H]2CC1 [C00005] | > 2 h | 1 | 15.9 ×10⁻⁶ cm/s | 16.2 ×10⁻⁶ cm/s | 7.7 µM | 2.35 | 22.0 μL min^–1 per million cells | 1.08 h | 19 | 75 | – | – | – | – | – | – | – | – |
| C/C1=C\CC[C@@]2(C)O[C@@H]2[C@H]2OC(=O)[C@@H](CN3CCC(c4cc(O)nc(C)n4)CC3)[C@@H]2CC1 [C00008] | > 2 h | – | 2.7 ×10⁻⁶ cm/s | 2.8 ×10⁻⁶ cm/s | – | 3.69 | 22.0 μL min^–1 per million cells | 1.07 h | 18 | 77 | 7.7 µM | – | – | – | – | – | – | Caco-2 pH 7.4 Efflux ratio [2]: 1.1 |
| C/C1=C\CC[C@@]2(C)O[C@@H]2[C@H]2OC(=O)[C@@H](CN[C@@H](Cc3ccccc3)C(=O)O)[C@@H]2CC1 [C00010] | > 2 h | – | 1.5 ×10⁻⁶ cm/s | 4.2 ×10⁻⁶ cm/s | – | 3.66 | 16.0 μL min^–1 per million cells | 1.47 h | 9 | 160 | 13.5 µM | – | – | – | – | – | – | Caco-2 pH 7.4 Efflux ratio [2]: 2.7 |
| C/C1=C\CC[C@@]2(C)O[C@@H]2[C@H]2OC(=O)[C@@H](CN3CCCC3)[C@@H]2CC1 [C00011] | – | – | – | – | – | – | – | – | – | – | – | 80.5 ng h mL^–1 | 207 mL/min/kg | 0.66 h | 711 ng h mL^–1 | 283 ng/mL | – | Vd [6]: 11.6 L/kg; Tmax ([7]; PO 10 mg kg^–1): 0.5 h; bioavailability ([7]; PO 10 mg kg^–1): 95.8% |
| C/C1=C\CC[C@@]2(C)O[C@@H]2[C@H]2OC(=O)[C@@H](CN3CCC(c4cc(O)nc(C)n4)CC3)[C@@H]2CC1 [C00012] | – | – | – | – | – | – | – | – | – | – | 7.7 µM | 289 ng h mL^–1 | – | – | 1696 ng h mL^–1 | – | – | Mouse PK (IV) Cl [6]: 58 mL min^–1 kg^–1; Mouse PK (IV) T1/2 [6]: 1.14 h; Vd [6]: 4.62 L/kg; Mouse PK (PO) Cmax ([7]; PO 10 mg kg^–1): 404 ng mL^–1; Tmax ([7]; PO 10 mg kg^–1): 1 h; bioavailability ([7]; PO 10 mg kg^–1): 58.5% |
| CC1=CCCC2(C)OC2C2OC(=O)C(CN3CCCC3)C2CC1 (stereo not shown) [Compound 5a] | – | 1 | – | – | < 15 µM | 2.35 | – | – | – | – | 7.7 µM | 80.5 ng h mL^–1 | 207 mL/min/kg | 0.66 h | 711 ng h mL^–1 | 283 ng/mL | 45% | stability in aqueous solution [1]: greater than two hours; IC50 [8]: > 100 µM; half-life [7]: 0.5 h; EC50 [3, 13]: 7.76 µM; microsomal CLint [5]: 19 µL/min/mg |
| C/C1=C\CC[C@@]2(C)O[C@@H]2[C@H]2OC(=O)[C@@H](CN3CCC(c4cc(O)nc(C)n4)CC3)[C@@H]2CC1 [Compound 5f] | – | 1.1 | – | – | < 15 µM | 3.69 | – | – | – | – | 7.7 µM | 289 ng h mL^–1 | 58 mL/min/kg | 1.14 h | 1696 ng h mL^–1 | 404 ng/mL | 24% | stability in aqueous solution [1]: greater than two hours; hERG liability flag [8]: inactive; IC50 ([8]; human): > 100 µM; half-life [7]: 1 h; EC50 [3, 13]: 7.76 µM; EC50 ([3]; Homo sapiens, MEC1, MEC1 cells, alamarBlue, 1, 5f and 7 compared in parallel, CalcuSyn, read-out: EC50): 4.3 µM; EC50 [3, 14]: 4.5 µM; effect of NAC pre-treatment on activity ([3]; MEC1 cells, pre-treatment with N-acetylcysteine (NAC)): abrogated activity; microsomal CLint [5]: 18 µL/min/mg |
| C/C1=C\CC[C@@]2(C)O[C@@H]2[C@H]2OC(=O)[C@@H](CN(C)C)[C@@H]2CC1 [DMAPT, dimethyl amino-PTL, reference compound] | – | – | – | – | – | 3.19 | – | – | – | – | – | – | – | – | – | – | 40% | IC50 [8]: > 100 µM; EC50 [3, 14]: 5.6 µM |
